Measurements published in article PMC9848300, “Discovery of novel enasidenib analogues targeting inhibition of mutant isocitrate dehydrogenase 2 as antileukaemic agents” (Journal of Enzyme Inhibition and Medicinal Chemistry, 2023).
Where “and” joins values, the source holds several entries; their conditions need not be identical. Equal entries are not always repeated.

Assays:
[1] = system: LOX IMVI; assay: NCI 60 antitumor screening (single dose / five doses); format: cell-based; settings: Homo sapiens; for inhibition at 10 µM: LOX IMVI (melanoma), single dose 10 μM, read-out: Growth inhibition percentage (GI %)
[2] = system: MDA-MB-435; assay: as above; format: cell-based; settings: Homo sapiens; for inhibition at 10 µM: MDA-MB-435 (melanoma), single dose 10 μM, read-out: Growth inhibition percentage (GI %)
[3] = system: SNB-75; assay: as above; format: cell-based; settings: Homo sapiens; for inhibition at 10 µM: SNB-75 (CNS cancer), single dose 10 μM, read-out: Growth inhibition percentage (GI %)
[4] = system: MDA-MB-231/ATCC; assay: as above; format: cell-based; settings: Homo sapiens; for inhibition at 10 µM: MDA-MB-231/ATCC (breast cancer), single dose 10 μM, read-out: Growth inhibition percentage (GI %)
[5] = system: BT-549; assay: as above; format: cell-based; settings: Homo sapiens; for inhibition at 10 µM: BT-549 (breast cancer), single dose 10 μM, read-out: Growth inhibition percentage (GI %)
[6] = system: HL-60(TB); assay: as above; format: cell-based; settings: Homo sapiens; for inhibition at 10 µM: HL-60(TB) (leukaemia), single dose 10 μM, read-out: Growth inhibition percentage (GI %)
[7] = system: MOLT-4; assay: as above; format: cell-based; settings: Homo sapiens; MOLT-4 (leukaemia), single dose 10 μM; read-out: Growth inhibition percentage (GI %)
[8] = system: RPMI-8226; assay: as above; format: cell-based; settings: Homo sapiens; for inhibition at 10 µM: RPMI-8226 (leukaemia), single dose 10 μM, read-out: Growth inhibition percentage (GI %)
[9] = system: HCT-116; assay: as above; format: cell-based; settings: Homo sapiens; for inhibition at 10 µM: HCT-116 (colon cancer), single dose 10 μM, read-out: Growth inhibition percentage (GI %)
[10] = system: SN 12C; assay: as above; format: cell-based; settings: Homo sapiens, SN12C; for inhibition at 10 µM: SN 12C (renal cancer), single dose 10 μM, read-out: Growth inhibition percentage (GI %)
[11] = system: NCI/ADR-RES; assay: as above; format: cell-based; settings: Homo sapiens; for inhibition at 10 µM: NCI/ADR-RES (ovarian cancer), single dose 10 μM, read-out: Growth inhibition percentage (GI %)
[12] = system: UACC-257; assay: as above; format: cell-based; settings: Homo sapiens; for inhibition at 10 µM: UACC-257 (melanoma), single dose 10 μM, read-out: Growth inhibition percentage (GI %)
[13] = system: CCRF-CEM; assay: as above; format: cell-based; settings: Homo sapiens; CCRF-CEM (leukaemia), single dose 10 μM; read-out: Growth inhibition percentage (GI %)
[14] = system: 786-0; assay: as above; format: cell-based; settings: Homo sapiens; for inhibition at 10 µM: 786-0, 786-0 (renal cancer), single dose 10 μM, read-out: Growth inhibition percentage (GI %)
[15] = system: HOP-92; assay: as above; format: cell-based; settings: Homo sapiens; for inhibition at 10 µM: HOP-92 (non-small cell lung cancer), single dose 10 μM, read-out: Growth inhibition percentage (GI %)
[16] = system: SR; assay: as above; format: cell-based; settings: Homo sapiens; SR (leukaemia), single dose 10 μM; read-out: Growth inhibition percentage (GI %)
[17] = system: K-562; assay: as above; format: cell-based; settings: Homo sapiens, K562; for inhibition at 10 µM: K-562 (leukaemia), single dose 10 μM, read-out: Growth inhibition percentage (GI %)
[18] = system: ACHN; assay: as above; format: cell-based; settings: Homo sapiens; for inhibition at 10 µM: ACHN (renal cancer), single dose 10 μM, read-out: Growth inhibition percentage (GI %)
[19] = system: HCT-15; assay: as above; format: cell-based; settings: Homo sapiens; for inhibition at 10 µM: HCT-15 (colon cancer), single dose 10 μM, read-out: Growth inhibition percentage (GI %)
[20] = system: M14; assay: NCI 60 antitumor screening (single dose); format: cell-based; settings: Homo sapiens; M14 (melanoma), single dose 10 μM; read-out: Growth inhibition percentage (GI %)
Summary of the method: (§1)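 Values are GI% (100 − G%) from the NCI 60-line single-dose screen, compound at 10 μM.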

[21] = system: HS 578T; assay: NCI 60 antitumor screening (single dose); format: cell-based; settings: Homo sapiens; HS 578T (breast cancer), single dose 10 μM; read-out: Growth inhibition percentage (GI %)
Summary of the method: as §1

[22] = system: TK-10; assay: NCI 60 antitumor screening (single dose); format: cell-based; settings: Homo sapiens; TK-10 (renal cancer), single dose 10 μM; read-out: Growth inhibition percentage (GI %)
Summary of the method: as §1

[23] = system: 60 human subpanel cancer cell lines; assay: NCI 60 antitumor screening, mean over the panel (single dose); format: cell-based; settings: mean over 60 cancer cell lines, single dose 10 μM
Summary of the method: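 NCI-60 protocol: single 10 μM dose against each cell line, run in triplicate. Percent growth (G%) of treated cells measured and growth inhibition reported as GI% = 100 − G%; panel mean also given.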

[24] = system: MALME-3M; assay: NCI 60 antitumor screening (single dose / five doses); format: cell-based; settings: Homo sapiens; for inhibition at 10 µM: MALME-3M (melanoma), single dose 10 μM, read-out: Growth inhibition percentage (GI %)
[25] = system: UO-31; assay: as above; format: cell-based; settings: Homo sapiens; for inhibition at 10 µM: UO-31 (renal cancer), single dose 10 μM, read-out: Growth inhibition percentage (GI %)
[26] = system: SF-539; assay: as above; format: cell-based; settings: Homo sapiens; for inhibition at 10 µM: SF-539 (CNS cancer), single dose 10 μM, read-out: Growth inhibition percentage (GI %)
[27] = system: HT29; assay: as above; format: cell-based, human; settings: Homo sapiens; for inhibition at 10 µM: HT-29, HT29 (colon cancer), single dose 10 μM, read-out: Growth inhibition percentage (GI %)
[28] = system: UACC-62; assay: as above; format: cell-based; settings: Homo sapiens; for inhibition at 10 µM: UACC-62 (melanoma), single dose 10 μM, read-out: Growth inhibition percentage (GI %)
[29] = system: T-47D; assay: as above; format: cell-based; settings: Homo sapiens, T47D; for inhibition at 10 µM: T-47D (breast cancer), single dose 10 μM, read-out: Growth inhibition percentage (GI %)

SMILES: C(=N\Nc1nc(N/N=C/c2ccc3c(c2)OCO3)nc(N2CCCCC2)n1)/c1ccc2c(c1)OCO2 [compound 7k, 2,4-Bis[(E)-2-(2H-1,3-Benzodioxol-5-ylmethylidene)hydrazin-1-yl]-6-(piperidin-1-yl)-1,3,5-triazine]
- inhibition at 10 µM [1]: 52.1%
- inhibition at 10 µM [2]: 1.52%
- inhibition at 10 µM [3]: -13.1%
- inhibition at 10 µM [4]: 9.3%
- inhibition at 10 µM [5]: -21.9%
- inhibition at 10 µM [6]: 39.6%
- inhibition at 10 µM [7]: 43.7%
- inhibition at 10 µM [8]: 43.8%
- inhibition at 10 µM [9]: 52.1%
- inhibition at 10 µM [10]: 20.3%
- inhibition at 10 µM [11]: 14.5%
- inhibition at 10 µM [12]: -7.99%
- inhibition at 10 µM [13]: 79.6%
- inhibition at 10 µM [14]: 13.4%
- inhibition at 10 µM [15]: 4.01%
- inhibition at 10 µM [16]: 99.9%
- inhibition at 10 µM [17]: 58.9%
- inhibition at 10 µM [18]: 5.09%
- inhibition at 10 µM [19]: 66.2%
- inhibition at 10 µM [20]: 2.72%
- inhibition at 10 µM [21]: -4.09%
- inhibition at 10 µM [22]: -21%
- Mean GI % [23]: 14.53%
- inhibition at 10 µM [24]: -20.2%
- inhibition at 10 µM [25]: 25.6%
- inhibition at 10 µM [26]: 12.4%
- inhibition at 10 µM [27]: 61.8%
- inhibition at 10 µM [28]: -2.37%
- inhibition at 10 µM [29]: 12.8%

SMILES: Fc1cccc(Cl)c1/C=N/Nc1nc(N/N=C/c2c(F)cccc2Cl)nc(N2CCCCC2)n1 [compound 7l, 2,4-Bis[(E)-2-[(2-Chloro-6-fluorophenyl)methylidene]hydrazin-1-yl]-6-(piperidin-1-yl)-1,3,5-triazine]
- inhibition at 10 µM [1]: 80.4%
- GI50 ([1]; LOX IMVI, five doses (0.01–100 μM), read-out: GI50): 3770 nM
- inhibition at 10 µM [2]: 96.2%
- GI50 ([2]; MDA-MB-435, five doses (0.01–100 μM), read-out: GI50): 2860 nM
- inhibition at 10 µM [3]: 62.5%
- GI50 ([3]; SNB-75, five doses (0.01–100 μM), read-out: GI50): 2360 nM
- GI50 ([4]; MDA-MB-231/ ATCC, five doses (0.01–100 μM), read-out: GI50): 7650 nM
- inhibition at 10 µM [4]: 57.9%
- inhibition at 10 µM [5]: 31.6%
- GI50 ([5]; BT-549, five doses (0.01–100 μM), read-out: GI50): 4450 nM
- inhibition at 10 µM [6]: 98.7%
- GI50 ([6]; HL-60(TB), five doses (0.01–100 μM), read-out: GI50): 2000 nM
- inhibition at 10 µM [7]: 86.3%
- inhibition at 10 µM [8]: 96.7%
- GI50 ([8]; RPMI-8226, five doses (0.01–100 μM), read-out: GI50): 2260 nM
- inhibition at 10 µM [9]: 80.5%
- GI50 ([9]; HCT-116, five doses (0.01–100 μM), read-out: GI50): 2830 nM
- inhibition at 10 µM [10]: 76.8%
- GI50 ([10]; SN 12C, five doses (0.01–100 μM), read-out: GI50): 2850 nM
- inhibition at 10 µM [11]: 84.8%
- GI50 ([11]; NCI/ADR-RES, five doses (0.01–100 μM), read-out: GI50): 2760 nM
- inhibition at 10 µM [12]: 88.3%
- GI50 ([12]; UACC-257, five doses (0.01–100 μM), read-out: GI50): 2390 nM
- inhibition at 10 µM [13]: 77.7%
- inhibition at 10 µM [14]: 71.7%
- GI50 ([14]; 786-0, five doses (0.01–100 μM), read-out: GI50): 3440 nM
- inhibition at 10 µM [15]: 101%
- GI50 ([15]; HOP-92, five doses (0.01–100 μM), read-out: GI50): 1470 nM
- inhibition at 10 µM [16]: 83.9%
- inhibition at 10 µM [17]: 67.7%
- GI50 ([17]; K-562, five doses (0.01–100 μM), read-out: GI50): 3080 nM
- inhibition at 10 µM [18]: 95.8%
- GI50 ([18]; ACHN, five doses (0.01–100 μM), read-out: GI50): 3040 nM
- inhibition at 10 µM [19]: 96.1%
- GI50 ([19]; HCT-15, five doses (0.01–100 μM), read-out: GI50): 2820 nM
- inhibition at 10 µM [20]: 88.1%
- inhibition at 10 µM [21]: 66.7%
- inhibition at 10 µM [22]: 72.8%
- Mean GI % [23]: 81% and 81.15%
- inhibition at 10 µM [24]: 95.8%
- GI50 ([24]; MALME-3M, five doses (0.01–100 μM), read-out: GI50): 2210 nM
- inhibition at 10 µM [25]: 91%
- GI50 ([25]; UO-31, five doses (0.01–100 μM), read-out: GI50): 2010 nM
- inhibition at 10 µM [26]: 43.8%
- GI50 ([26]; SF-539, five doses (0.01–100 μM), read-out: GI50): 7650 nM
- GI50 ([27]; HT-29, HT29, five doses (0.01–100 μM), read-out: GI50): 2900 nM
- inhibition at 10 µM [27]: 96.5%
- inhibition at 10 µM [28]: 81.7%
- GI50 ([28]; UACC-62, five doses (0.01–100 μM), read-out: GI50): 2350 nM
- inhibition at 10 µM [29]: 89%
- GI50 ([29]; T-47D, five doses (0.01–100 μM), read-out: GI50): 1710 nM

SMILES: O=C1Nc2ccc(Cl)cc2/C1=N\Nc1nc(N/N=C2/C(=O)Nc3ccc(Cl)cc32)nc(N2CCOCC2)n1 [compound 8b, (3E)-5-Chloro-3-[2–(4-{2-[(3E)-5-chloro-2-oxo-2,3-dihydro-1H-indol-3-ylidene]hydrazin-1-yl}6-(morpholin-4-yl)-1,3,5-triazin-2-yl)hydrazin-1-ylidene]-2,3-dihydro-1H-indol-2-one]
- inhibition at 10 µM [1]: 76.8%
- inhibition at 10 µM [2]: 36.5%
- inhibition at 10 µM [3]: 101%
- inhibition at 10 µM [4]: 63.7%
- inhibition at 10 µM [5]: 106%
- inhibition at 10 µM [6]: 27.8%
- inhibition at 10 µM [7]: 37.5%
- inhibition at 10 µM [8]: 63.6%
- inhibition at 10 µM [9]: 54.6%
- inhibition at 10 µM [10]: 56.1%
- inhibition at 10 µM [11]: 1.85%
- inhibition at 10 µM [12]: 18%
- inhibition at 10 µM [13]: 79.8%
- inhibition at 10 µM [14]: 26.3%
- inhibition at 10 µM [15]: 74%
- inhibition at 10 µM [16]: 70.8%
- inhibition at 10 µM [17]: 67.1%
- inhibition at 10 µM [18]: 25.5%
- inhibition at 10 µM [19]: 8.4%
- inhibition at 10 µM [20]: 22.5%
- inhibition at 10 µM [21]: 108%
- inhibition at 10 µM [22]: -18.5%
- Mean GI % [23]: 47.89%
- inhibition at 10 µM [24]: 43.6%
- inhibition at 10 µM [25]: 21.4%
- inhibition at 10 µM [26]: 84%
- inhibition at 10 µM [27]: 8.9%
- inhibition at 10 µM [28]: 48.4%
- inhibition at 10 µM [29]: 70.7%
